Tests used:
[1] = system: cisplatin-induced renal toxicity; test: Rat cisplatin-induced acute renal injury; type: in vivo
Method: FIGS. 2a-c—RTA 402 reduces cisplatin-induced renal toxicity. Rats were administered RTA 402 at 10 mg/kg or simply the vehicle (sesame oil) every day by oral gavage beginning on Day −1. On Day 0, the rats received an intravenous injection of cisplatin at 6 mg/kg. Blood samples were drawn on the indicated days and the levels of creatinine (FIG. 2a) and blood urea nitrogen (BUN) (FIG. 2b) were measured as markers of renal damage. A statistically significant difference was observed between the vehicle-treated and RTA 402-treated groups on Day 3 (creatinine) and Day 5 (creatinine and BUN). (FIG. 2c) Less damage to the proximal tubules is observed in RTA 402-treated animals compared to vehicle-treated animals.
In another model of acute renal injury, rats were injected intravenously with the antineoplastic agent cisplatin. In humans, nephrotoxicity is a dose-limiting side effect of treatment with cisplatin. Cisplatin-induced damage to the proximal tubules is thought to be mediated by increased inflammation, oxidative stress, and apoptosis (Yao et al., 2007). Rats treated with a single dose of cisplatin at 6 mg/kg developed renal insufficiency as measured by increased blood levels of creatinine and BUN.

[2] = system: NQO1 in Hepa1c1c7 murine hepatoma cells; conditions: concentration required to induce a two-fold increase in expression of NQO1, Hepa1c1c7 cells; cited from earlier work
[3] = system: IFNγ-induced NO production in RAW264.7 macrophages; test: Suppression of IFNγ-induced NO production (Griess reagent system); type: cell-based; conditions: Mus musculus; RAW264.7, pre-treated 2 hours, then 20 ng/ml IFNγ for 24 hours
[4] = Serum creatinine in toxicology study, dogs; type: in vivo, beagle dogs; conditions: oral, daily for three months
Method: FIGS. 3a-d—RTA 402 reduces serum creatinine levels in monkeys, dogs, and rats. (FIG. 3a) Cynomolgus monkeys were administered RTA 402 orally at the indicated doses once daily for 28 days. The percent reduction of serum creatinine on Day 28 in RTA 402-treated monkeys relative to vehicle-treated control monkeys is shown. (FIG. 3b) RTA 402 was administered orally to beagle dogs at the indicated doses daily for three months. Control animals received vehicle (sesame oil). The percent change in serum creatinine at the three-month time point relative to baseline is shown. (FIG. 3c) Sprague-Dawley rats were administered RTA 402 orally at the indicated doses once daily for a period of one month. The percent reduction of serum creatinine at study completion in RTA 402-treated rats relative to vehicle-treated control rats is shown. (FIG. 3d) Sprague-Dawley rats were administered the amorphous form of RTA 402 orally at the indicated doses once daily for a period of three months. The percent reduction of serum creatinine at study completion in RTA 402-treated rats relative to vehicle-treated control rats is shown. […] For example, a reading of −15 on this axis indicates a 15% reduction in serum creatinine.
Serum creatinine has been measured in several animal species treated with RTA 402 in the course of toxicology studies. […]

[5] = 10 mg/kg oral gavage daily from one day prior to cisplatin 6 mg/kg i.v.

SMILES: COC(=O)[C@]12CCC(C)(C)C[C@H]1[C@H]1C(=O)C=C3[C@@]4(C)C=C(C#N)C(=O)C(C)(C)[C@@H]4CC[C@@]3(C)[C@]1(C)CC2 [RTA 402, methyl-2-cyano-3,12-dioxooleana-1,9-dien-28-oic acid]
- Extent of proximal tubule damage (histological evaluation) compared to vehicle ([1]; 10 mg/kg oral gavage daily): improvement
- Blood levels of BUN [1, 5]: significantly reduced
- Blood levels of creatinine [1, 5]: significantly reduced
- NQO1 CD [2]: 1.0 nM
- IC50 [3]: 2.2 nM
- Serum creatinine levels relative to baseline [4]: Significant reductions

From patent US8455544B2, “Synthetic triterpenoids and methods of use in the treatment of disease” (Reata Pharmaecuticals, Inc., priority 2008, dated 2013)
